The values below are quoted from earlier work in paper PMC8537947, “Improved Radiolytic Stability of a ^68Ga-labelled Collagelin Analogue for the Imaging of Fibrosis” (Pharmaceuticals, 2021).

The target of one data set is collagen I. To be noted: initial cyclic peptide analogues, earlier work of the authors; cited from earlier work. The source says: One of the targets for radioactive imaging agents is type I collagen which is the most abundant extracellular matrix protein [1, 2, 3, 4, 5, 6]. Collagelin, a cyclic peptide identified from the bacterial peptide library, presumably binds selectively to the triple helix structure of collagen. The aim of this study was to develop a PET tracer for the specific imaging of early active fibrosis via binding to monomer collagen. The uptake in bone, skin and other tissues rich in collagen cross-linked fibrils, and in diseased sites with established, mature collagen was expected to be low, ...

For data set [1], the system named is frozen sections of dog heart affected by fibrosis. To be noted: cited from earlier work. The text has this:
The presence of excessive deposition of collagen was confirmed previously performing a Sirius Red histological assay on the adjacent tissue sections. The uptake of [^68Ga]Ga-NO2A-[Nle^13]-Col in the fibrotic tissue linearly correlated (R^2 = 0.84, Figure 2C) with the scoring of fibrosis, indicating a target density ranging between ...

For “c[CPGRVXHGLHLGDDEGPC] (disulfide) [[^68Ga]Ga-NO2A-Col]”, the Kd on collagen I was 2300 ± 800 nM. In data set [1], the target density is 2.0 fmol/mm^3.
